In patent US20070105865A1, “Substituted bicyclic quinazolin-4-ylamine derivatives” (Neurogen Corporation, priority 2003, published 2007):
Structures can show the parent of a compound that is named as a salt.

Target: T1, human capsaicin receptor (Homo sapiens, UniProt Q8NER1)
T1 construct: transfected with the pBK-CMV expression construct encoding the full length human capsaicin receptor using standard methods; expressed in transfected cells
Experiment: Calcium mobilization assay (Example 6)
Type: cell-based
Conditions: determined as described in Example 6; cells expressing human capsaicin receptor, capsaicin response
Experimental: Human embryonic kidney (HEK293) cells were transfected with the pBK-CMV expression construct encoding the full length human capsaicin receptor using standard methods. The transfected cells were selected for two weeks in media containing G418 (400 μg/ml) to obtain a pool of stably transfected cells. Independent clones were isolated from this pool by limiting dilution to obtain clonal stable cell lines for use in subsequent experiments.
This Example illustrates a representative calcium mobilization assay for use in monitoring the response of cells expressing capsaicin receptor to capsaicin and other vanilloid ligands of the capsaicin receptor, as well as for evaluating test compounds for agonist and antagonist activity.
Cells transfected with expression plasmids (as described in Example 4) and thereby expressing human capsaicin receptor are seeded and grown to 70-90% confluency in FALCON black-walled, clear-bottomed 96-well plates (#3904, BECTON-DICKINSON, Franklin Lakes, N.J.). The culture medium is emptied from the 96 well plates and FLUO-3 AM calcium sensitive dye (Molecular Probes, Eugene, Oreg.) is added to each well (dye solution: 1 mg FLUO-3 AM, 440 μL DMSO and 440 μl 20% pluronic acid in DMSO, diluted 1:250 in Krebs-Ringer HEPES (KRH) buffer (25 mM HEPES, 5 mM KCl, 0.96 mM NaH2PO4, 1 mM MgSO4, 2 mM CaCl2, 5 mM glucose, 1 mM probenecid, pH 7.4), 50 μl diluted solution per well). Plates are covered with aluminum foil and incubated at 37° C. for 1-2 hours in an environment containing 5% CO2. After the incubation, the dye is emptied from the plates, and the cells are washed once with KRH buffer, and resuspended in KRH buffer.
Agonist (e.g., olvanil, capsaicin or RTX)-induced calcium mobilization is monitored using either FLUOROSKAN ASCENT (Labsystems, Franklin, Mass.) or FLIPR (fluorometric imaging plate reader system, Molecular Devices, Sunnyvale, Calif.) instruments. Varying concentrations of the antagonists ruthenium red or capsazepine (RBI; Natick, Mass.) are added to cells concurrently with agonist (e.g., 25-50 nM capsaicin). For agonist-induced calcium responses, data obtained between 30 and 60 seconds after agonist application are used to generate the IC50 values. KALEIDAGRAPH software (Synergy Software, Reading, Pa.) is used to fit the data to the equation: y=a*(1/(1+(b/x)^c)) to determine the IC50 for the response. In this equation, y is the maximum fluorescence signal, x is the concentration of the agonist or antagonist, a is the Emax, b corresponds to the IC50 value and c is the Hill coefficient.
To measure the ability of a test compound to antagonize (inhibit) the response of cells expressing capsaicin receptors to capsaicin or other vanilloid agonist, the IC50 of capsaicin is first determined. An additional 20 μl of KRH buffer and 1 μl DMSO is added to each well of cells, prepared as described above. 100 μl capsaicin in KRH buffer is automatically transferred by the FLIPR instrument to each well. An 8-point concentration response curve, with final capsaicin concentrations of 1 nM to 3 μM, is used to determine capsaicin IC50.
Test compounds are dissolved in DMSO, diluted in 20 μl KRH buffer so that the final concentration of test compounds in the assay well is between 1 μM and 5 μM, and added to cells prepared as described above. The 96 well plates containing prepared cells and test compounds are incubated in the dark, at room temperature for 0.5 to 6 hours. It is important that the incubation not continue beyond 6 hours. Just prior to determining the fluorescence response, 100 μl capsaicin in KRH buffer at twice the IC50 concentration determined from the concentration response curve is automatically added by the FLIPR instrument to each well of the 96 well plate for a final sample volume of 200 μl and a final capsaicin concentration equal to the IC50. The final concentration of test compounds in the assay wells is between 1 μM and 5 μM. […]

T1 sequence (Q8NER1 whole entry): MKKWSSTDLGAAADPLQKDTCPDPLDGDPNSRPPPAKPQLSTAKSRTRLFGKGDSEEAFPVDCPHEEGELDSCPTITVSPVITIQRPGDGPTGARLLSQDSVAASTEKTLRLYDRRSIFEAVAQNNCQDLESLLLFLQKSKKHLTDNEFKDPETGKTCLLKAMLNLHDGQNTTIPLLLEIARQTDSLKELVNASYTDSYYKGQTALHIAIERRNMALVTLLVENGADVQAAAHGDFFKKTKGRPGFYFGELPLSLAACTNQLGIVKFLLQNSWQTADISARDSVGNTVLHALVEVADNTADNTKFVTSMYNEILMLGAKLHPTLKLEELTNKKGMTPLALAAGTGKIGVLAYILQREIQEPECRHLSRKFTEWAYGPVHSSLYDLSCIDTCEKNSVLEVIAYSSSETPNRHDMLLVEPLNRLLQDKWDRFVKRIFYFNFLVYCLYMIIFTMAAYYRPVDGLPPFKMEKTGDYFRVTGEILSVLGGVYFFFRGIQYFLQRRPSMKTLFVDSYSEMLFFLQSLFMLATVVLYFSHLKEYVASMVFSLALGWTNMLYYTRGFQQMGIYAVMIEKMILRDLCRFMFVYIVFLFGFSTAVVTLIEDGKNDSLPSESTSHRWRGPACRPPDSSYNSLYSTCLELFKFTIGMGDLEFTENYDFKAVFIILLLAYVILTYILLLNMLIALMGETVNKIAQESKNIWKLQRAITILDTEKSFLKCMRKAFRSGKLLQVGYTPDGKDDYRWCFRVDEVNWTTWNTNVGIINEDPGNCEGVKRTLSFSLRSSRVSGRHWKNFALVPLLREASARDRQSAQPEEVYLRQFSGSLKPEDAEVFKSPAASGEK

| SMILES | IC50 [nM] |
| --- | --- |
| CC(C)COCc1nc(Nc2ccc3c(c2)N(C)CC3(C)C)c2ccc(-c3ncccc3Cl)nc2n1 [Compound 8, [7-(3-Chloro-pyridin-2-yl)-2-isobutoxymethyl-pyrido[2,3-d]pyrimidin-4-yl]-(1,3,3-trimethyl-2,3-dihydro-1H-indol-6-yl)-amine] | < 1000 |
| COCc1nc(Nc2ccc3c(c2)N(C)CCC3)c2ccc(-c3ncccc3Cl)nc2n1 [Compound 1, [7-(3-Chloro-pyridin-2-yl)-2-methoxymethyl-pyrido[2,3-d]pyrimidin-4-yl]-(1-methyl-1,2,3,4-tetrahydro-quinolin-7-yl)-amine] | < 1000 |
| CC(C)COCc1nc(Nc2ccc3c(c2)NCCC3(C)C)c2ccc(-c3ncccc3C(F)(F)F)nc2n1 [Compound 4, (4,4-Dimethyl-1,2,3,4-tetrahydro-quinolin-7-yl)-[2-isobutoxymethyl-7-(3-trifluoromethyl-pyridin-2-yl)pyrido[2,3-d]pyrimidin-4-yl]-amine hydrochloride] | < 1000 |
| CCOCc1nc(Nc2ccc3c(c2)N(C)CCO3)c2ccc(-c3ncccc3Cl)nc2n1 [Compound 6] | < 1000 |
| CCOCc1nc(Nc2ccc3c(c2)N(C(C)=O)CC3(C)C)c2ccc(-c3ncccc3C)nc2n1 [Compound 7, 1-{6-[2-Ethoxymethyl-7-(3-methyl-pyridin-2-yl)-pyrido[2,3-d]pyrimidin-4-ylamino]-3,3-dimethyl-2,3-dihydro-indol-1-yl}-ethanone] | < 1000 |

Further lines, results first:

| IC50 [nM] | SMILES |
| --- | --- |
| < 1000 | CN1Cc2cc(Nc3ncnc4cc(-c5ncccc5Cl)cnc34)ccc2C(C)(C)C1 [Compound 9, [7-(3-Chloro-pyridin-2-yl)-pyrido[3,2-d]pyrimidin-4-yl]-(2,4,4-trimethyl-1,2,3,4-tetrahydro-isoquinolin-7-yl)-amine hydrochloride] |
| < 1000 | COCc1nc(Nc2ccc3c(c2)NCCC3)c2ccc(-c3ncccc3C(F)(F)F)nc2n1 [Compound 5, [2-Methoxymethyl-7-(3-trifluorometyl-pyridin-2-yl)-pyrido[2,3-d]pyrimidin-4-yl]-(1,2,3,4-tetrahydro-quinolin-7-yl)-amine] |
| < 1000 | CN1Cc2cc(Nc3ncnc4cc(-c5ncccc5C(F)(F)F)ccc34)ccc2C(C)(C)C1 [Compound 3, [7-(3-Trifluoromethyl-pyridin-2-yl)-quinazolin-4-yl]-(2,4,4-trimethyl-1,2,3,4-tetrahydro-isoquinolin-7-yl)-amine hydrochloride] |
| < 1000 | COCc1cc(Nc2ccc3c(c2)NCCC3(C)C)c2ccc(-c3ncccc3C(F)(F)F)nc2n1 [Compound 10] |
